Data taken from paper PMC4977194 (Bioorganic & medicinal chemistry letters, 2016).

How the values were obtained:
[1] = target: VMAT2 (Rattus norvegicus, UniProt Q01827); assay: Vesicular [3H]DA uptake assay; type: biochemical; conditions: for further improvement in inhibitory potency at VMAT2 on hydrolysis of the 4-acetoxy groups: relative to acetoxy precursors 4 and 5
[2] = target: SERT (Rattus norvegicus, UniProt P31652); assay: Synaptosomal [3H]5-HT uptake assay; type: biochemical
Sequence of SERT (P31652 whole entry): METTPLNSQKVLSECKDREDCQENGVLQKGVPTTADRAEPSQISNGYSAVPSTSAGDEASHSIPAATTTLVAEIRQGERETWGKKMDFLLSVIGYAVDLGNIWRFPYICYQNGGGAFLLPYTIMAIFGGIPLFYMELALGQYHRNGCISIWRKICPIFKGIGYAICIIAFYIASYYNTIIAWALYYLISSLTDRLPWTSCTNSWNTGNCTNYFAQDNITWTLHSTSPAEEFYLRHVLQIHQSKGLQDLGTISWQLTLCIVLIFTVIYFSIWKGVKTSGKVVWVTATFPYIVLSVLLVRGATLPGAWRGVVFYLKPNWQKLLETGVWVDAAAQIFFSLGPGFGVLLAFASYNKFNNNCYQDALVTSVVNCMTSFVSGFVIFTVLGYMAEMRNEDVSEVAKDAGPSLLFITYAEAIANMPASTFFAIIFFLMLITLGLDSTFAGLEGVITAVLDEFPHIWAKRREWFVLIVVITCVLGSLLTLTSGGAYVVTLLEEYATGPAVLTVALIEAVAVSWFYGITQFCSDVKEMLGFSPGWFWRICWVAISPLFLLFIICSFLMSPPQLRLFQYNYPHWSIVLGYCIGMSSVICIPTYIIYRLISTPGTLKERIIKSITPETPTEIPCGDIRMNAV

Sequence of VMAT2 (Q01827 whole entry): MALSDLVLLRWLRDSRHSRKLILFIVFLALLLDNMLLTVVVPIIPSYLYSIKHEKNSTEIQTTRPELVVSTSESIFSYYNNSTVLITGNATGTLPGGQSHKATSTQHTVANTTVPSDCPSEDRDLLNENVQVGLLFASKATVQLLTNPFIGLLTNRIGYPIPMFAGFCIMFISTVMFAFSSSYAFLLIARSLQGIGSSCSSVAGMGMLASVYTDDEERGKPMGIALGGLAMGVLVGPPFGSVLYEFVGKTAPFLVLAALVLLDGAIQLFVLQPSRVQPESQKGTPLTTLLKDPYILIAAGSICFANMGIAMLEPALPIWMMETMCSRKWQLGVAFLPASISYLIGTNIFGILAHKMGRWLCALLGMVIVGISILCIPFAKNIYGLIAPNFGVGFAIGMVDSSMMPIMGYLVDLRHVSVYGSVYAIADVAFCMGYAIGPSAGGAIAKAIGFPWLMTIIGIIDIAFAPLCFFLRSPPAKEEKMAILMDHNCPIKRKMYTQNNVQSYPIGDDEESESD

`Cl.Oc1ccc(CC[C@H]2CCC[C@@H](CCc3ccc(O)cc3)N2)cc1` [Compound 7] was tested, and the “further improvement in inhibitory potency at VMAT2 on hydrolysis of the 4-acetoxy groups” value [1] was “about 2 fold”.

In the case of `Cl.FCCOc1ccc(CC[C@H]2CCC[C@@H](CCc3ccc(OCCF)cc3)N2)cc1` [Compound 13], the “greater affinity for SERT than lobelane” value [2] is reported as 6 fold.

For `CN1[C@@H](CCc2ccc(O)cc2)CCC[C@H]1CCc1ccc(O)cc1.Cl` [Compound 6], the “further improvement in inhibitory potency at VMAT2 on hydrolysis of the 4-acetoxy groups” value [1] was “about 2 fold”.

`Cl.OC[C@H](O)CN1[C@@H](CCc2ccc(O)cc2)CCC[C@H]1CCc1ccc(OCCF)cc1` [Compound 16] was tested, and the “greater affinity for SERT than GZ-793A” value [2] was 7 fold.

For `CC(=O)Oc1ccc(CC[C@H]2CCC[C@@H](CCc3ccc(OC(C)=O)cc3)N2C)cc1.Cl` [Compound 5], the “improved inhibitory potency at VMAT2 relative to 4” value ([1]; N-methylation of 4) was 3 fold.

`Cl.OC[C@H](O)CN1[C@@H](CCc2ccc(OCCF)cc2)CCC[C@H]1CCc1ccc(OCCF)cc1` [Compound 17] was tested, and the “decrease in affinity for SERT when compared to GZ-793A” value [2] was 4 fold.
